Results taken from PMC9234961 (Journal of Medicinal Chemistry, 2022).

Columns and labels:
AVPR1A = AVPR1A (Homo sapiens, UniProt P37288); experiment: SAFETYScan GPCR Calcium Flux, Antagonist; assay type: cell-based
Text: (§1) Supplement jm1c02175_si_002.xlsx, sheet "SAFETYScan" | column: RC50 (uM); Max Response

CHRM1 = biological target: T1, CHRM1 (Homo sapiens, UniProt P11229); experiment: SAFETYScan GPCR Calcium Flux, Antagonist; assay type: cell-based
T1 sequence (P11229 1-460): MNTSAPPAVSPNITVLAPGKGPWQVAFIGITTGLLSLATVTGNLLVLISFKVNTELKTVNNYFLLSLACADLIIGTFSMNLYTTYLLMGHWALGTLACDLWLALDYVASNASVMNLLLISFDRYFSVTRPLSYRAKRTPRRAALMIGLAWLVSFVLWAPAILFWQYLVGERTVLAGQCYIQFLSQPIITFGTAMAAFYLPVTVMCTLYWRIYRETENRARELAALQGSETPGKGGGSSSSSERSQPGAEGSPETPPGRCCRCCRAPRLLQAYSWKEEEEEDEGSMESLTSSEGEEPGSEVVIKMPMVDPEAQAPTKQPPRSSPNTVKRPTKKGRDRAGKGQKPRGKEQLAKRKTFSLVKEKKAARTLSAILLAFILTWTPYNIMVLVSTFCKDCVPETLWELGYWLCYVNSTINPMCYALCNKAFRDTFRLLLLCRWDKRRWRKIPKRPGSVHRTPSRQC
Text: as §1

CHRM3 = CHRM3 (Homo sapiens, UniProt P20309); experiment: SAFETYScan GPCR Calcium Flux, Antagonist; assay type: cell-based
Text: as §1

EDNRA = biological target: T2, EDNRA (Homo sapiens, UniProt P25101); experiment: SAFETYScan GPCR Calcium Flux, Antagonist; assay type: cell-based
T2 sequence (P25101 21-427): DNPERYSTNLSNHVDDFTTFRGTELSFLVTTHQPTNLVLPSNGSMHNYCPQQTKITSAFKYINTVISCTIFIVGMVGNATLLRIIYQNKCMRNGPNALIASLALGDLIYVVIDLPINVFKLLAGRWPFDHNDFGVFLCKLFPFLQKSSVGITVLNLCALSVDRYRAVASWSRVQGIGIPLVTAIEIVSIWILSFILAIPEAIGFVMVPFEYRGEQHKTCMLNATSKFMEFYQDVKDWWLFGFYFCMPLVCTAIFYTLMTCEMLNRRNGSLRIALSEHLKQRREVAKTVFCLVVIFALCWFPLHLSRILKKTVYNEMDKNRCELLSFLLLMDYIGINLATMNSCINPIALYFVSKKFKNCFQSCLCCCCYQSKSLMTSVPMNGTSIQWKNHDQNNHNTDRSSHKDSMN
Text: as §1

HRH1 = HRH1 (Homo sapiens, UniProt P35367); experiment: SAFETYScan GPCR Calcium Flux, Antagonist; assay type: cell-based
Text: as §1

HTR2A = HTR2A (Homo sapiens, UniProt P28223); experiment: SAFETYScan GPCR Calcium Flux, Antagonist; assay type: cell-based
Text: as §1

HTR2B = biological target: T3, HTR2B (Homo sapiens, UniProt P41595); experiment: SAFETYScan GPCR Calcium Flux, Antagonist; assay type: cell-based
T3 construct: expressed in transfected cells
Text: as §1

OCI-Ly1 = experiment: Cell proliferation assay (14 days), OCI-Ly1
Description: Cells were seeded in 96-well culture plates at a density of 2500 cells/well in RPMI-1640 medium (Sigma-
Aldrich) supplemented with 10% FBS (Gibco). Compounds were initially dispensed into 96-well U-bottom
plates using an Echo 550 acoustic dispenser (Labcyte Inc.), then diluted in RPMI-1640 medium and
transferred onto the cells. Cells were treated with 8 compound concentrations in duplicate, ranging from
with compound for 14 days, with medium changes at days 3, 7 and 10 carried out as follows: fresh 96-well
cell culture plates were prepared containing 100 µl medium plus compound at the assay concentrations
(white plates were used on day 10 to optimise luminescence measurement). Assay plates containing cells
were vortexed to mix and cell density in one control well was counted using a Coulter Z2 cell counter
(Beckman Coulter). The volume of medium containing 2500 cells in the control well was calculated and this volume of cells was transferred from every well of the assay plates to the corresponding well of the fresh plates containing compound. After 14 days, CellTiter Glo reagent (Promega) was added to the medium in each well of the assay plate at a ratio of 1:2, mixed on a plate shaker, then incubated at room temperature for 10 minutes. Luminescence was measured using an Envision plate reader (Perkin Elmer) and the relative luminescence at each compound concentration, compared to DMSO alone, was calculated. GI50 were determined using a 4-parameter curve fit in Dotmatics (Bishops Stortford, UK).

T3 sequence (P41595 whole entry): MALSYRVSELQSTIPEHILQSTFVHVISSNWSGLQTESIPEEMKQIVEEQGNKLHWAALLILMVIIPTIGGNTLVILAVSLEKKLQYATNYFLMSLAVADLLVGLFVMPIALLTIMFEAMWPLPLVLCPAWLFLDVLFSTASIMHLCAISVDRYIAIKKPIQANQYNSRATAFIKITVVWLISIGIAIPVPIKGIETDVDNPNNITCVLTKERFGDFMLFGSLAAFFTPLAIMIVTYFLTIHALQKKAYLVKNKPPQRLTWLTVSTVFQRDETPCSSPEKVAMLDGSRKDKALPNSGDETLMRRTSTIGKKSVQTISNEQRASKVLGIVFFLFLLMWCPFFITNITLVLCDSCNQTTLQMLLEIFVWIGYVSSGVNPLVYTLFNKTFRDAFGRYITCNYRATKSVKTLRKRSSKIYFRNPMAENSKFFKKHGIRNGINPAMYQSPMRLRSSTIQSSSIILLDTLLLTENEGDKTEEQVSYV
Chain of HTR2A (P28223 whole entry): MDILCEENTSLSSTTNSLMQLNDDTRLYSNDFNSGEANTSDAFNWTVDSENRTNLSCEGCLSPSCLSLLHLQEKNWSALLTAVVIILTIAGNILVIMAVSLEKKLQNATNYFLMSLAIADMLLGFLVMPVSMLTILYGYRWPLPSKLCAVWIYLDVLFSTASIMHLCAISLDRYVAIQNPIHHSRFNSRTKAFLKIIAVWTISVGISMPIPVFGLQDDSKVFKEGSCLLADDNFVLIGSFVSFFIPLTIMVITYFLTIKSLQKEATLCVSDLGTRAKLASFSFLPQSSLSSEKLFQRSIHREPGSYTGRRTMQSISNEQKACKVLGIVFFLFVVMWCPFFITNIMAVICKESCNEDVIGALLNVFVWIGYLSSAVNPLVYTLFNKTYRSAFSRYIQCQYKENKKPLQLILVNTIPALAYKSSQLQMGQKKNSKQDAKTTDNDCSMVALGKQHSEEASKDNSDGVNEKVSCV
Chain of HRH1 (P35367 whole entry): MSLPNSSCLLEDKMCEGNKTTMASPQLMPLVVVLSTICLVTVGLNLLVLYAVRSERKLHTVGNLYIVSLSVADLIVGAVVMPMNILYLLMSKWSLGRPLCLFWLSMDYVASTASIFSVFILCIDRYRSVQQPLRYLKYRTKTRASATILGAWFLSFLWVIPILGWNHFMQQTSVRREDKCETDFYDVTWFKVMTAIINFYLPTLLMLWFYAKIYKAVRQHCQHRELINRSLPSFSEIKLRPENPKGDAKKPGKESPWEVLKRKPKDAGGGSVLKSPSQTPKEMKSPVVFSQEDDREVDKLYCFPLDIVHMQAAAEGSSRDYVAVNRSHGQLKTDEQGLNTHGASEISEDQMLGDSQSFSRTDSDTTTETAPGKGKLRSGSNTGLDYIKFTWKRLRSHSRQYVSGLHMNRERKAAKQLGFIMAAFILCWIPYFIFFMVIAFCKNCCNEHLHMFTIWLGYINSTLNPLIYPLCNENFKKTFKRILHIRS
Chain of CHRM3 (P20309 whole entry): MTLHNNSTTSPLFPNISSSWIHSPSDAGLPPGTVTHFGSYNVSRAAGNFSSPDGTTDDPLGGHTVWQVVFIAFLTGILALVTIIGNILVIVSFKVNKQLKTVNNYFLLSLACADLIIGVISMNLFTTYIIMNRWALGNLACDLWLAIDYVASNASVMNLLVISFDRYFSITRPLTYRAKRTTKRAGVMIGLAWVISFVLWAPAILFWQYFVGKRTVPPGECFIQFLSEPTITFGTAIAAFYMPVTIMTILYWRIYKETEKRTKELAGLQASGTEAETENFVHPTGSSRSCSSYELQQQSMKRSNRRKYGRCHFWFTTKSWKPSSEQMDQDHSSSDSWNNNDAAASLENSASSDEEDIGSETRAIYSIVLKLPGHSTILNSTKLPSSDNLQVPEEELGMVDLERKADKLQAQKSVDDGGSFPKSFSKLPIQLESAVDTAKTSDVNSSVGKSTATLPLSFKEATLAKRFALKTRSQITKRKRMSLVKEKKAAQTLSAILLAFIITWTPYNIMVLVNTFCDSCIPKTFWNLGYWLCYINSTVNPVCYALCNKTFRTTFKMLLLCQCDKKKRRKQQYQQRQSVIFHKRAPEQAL
Chain of AVPR1A (P37288 whole entry): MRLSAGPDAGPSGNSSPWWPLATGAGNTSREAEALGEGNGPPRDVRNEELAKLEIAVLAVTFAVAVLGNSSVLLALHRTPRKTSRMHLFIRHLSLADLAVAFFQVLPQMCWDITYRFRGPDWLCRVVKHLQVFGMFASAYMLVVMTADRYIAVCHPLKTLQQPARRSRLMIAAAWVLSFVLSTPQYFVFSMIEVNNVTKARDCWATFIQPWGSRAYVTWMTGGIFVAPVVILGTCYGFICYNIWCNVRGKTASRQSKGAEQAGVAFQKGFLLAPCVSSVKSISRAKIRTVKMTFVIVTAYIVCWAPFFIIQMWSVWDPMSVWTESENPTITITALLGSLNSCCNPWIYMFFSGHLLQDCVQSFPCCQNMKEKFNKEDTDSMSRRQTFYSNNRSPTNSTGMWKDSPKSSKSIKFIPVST

Compound: C[C@H]1C[C@@H](O)CN(c2ncc(Cl)c(Nc3ccc4c(c3)c3c(c(=O)n4C)OCC(F)(F)[C@H](C4CC4)N3)n2)C1 [12a CCT373566, (S)-10-((5-Chloro-2-((3R,5S)-3-hydroxy-5-methylpiperidin-1-yl)pyrimidin-4-yl)amino)-2-cyclopropyl-3,3-difluoro-7-methyl-1,2,3,4-tetrahydro-[1,4]oxazepino[2,3-c]quinolin-6(7H)-one]
- Emax (AVPR1A; read-out: Max Response): 0%
- IC50 (AVPR1A; read-out: RC50 (IC50)): > 10 µM
- Emax (CHRM1; read-out: Max Response): 3.44%
- IC50 (CHRM1; read-out: RC50 (IC50)): > 10 µM
- Emax (CHRM3; read-out: Max Response): 0%
- IC50 (CHRM3; read-out: RC50 (IC50)): > 10 µM
- Emax (EDNRA; read-out: Max Response): 0%
- IC50 (EDNRA; read-out: RC50 (IC50)): > 10 µM
- Emax (HRH1; read-out: Max Response): 0%
- IC50 (HRH1; read-out: RC50 (IC50)): > 10 µM
- Emax (HTR2A; read-out: Max Response): 1.76%
- IC50 (HTR2A; read-out: RC50 (IC50)): > 10 µM
- Emax (HTR2B; read-out: Max Response): 24.2%
- IC50 (HTR2B; read-out: RC50 (IC50)): > 10 µM
- OCI-Ly1 GI50 (OCI-Ly1; 14-day proliferation assay): Very potent growth inhibition
- GI50 (OCI-Ly1; Homo sapiens, OCI-Ly1, 336 h, read-out: OCI-Ly1 GI50): 0.0021 µM
